The subject of experiment [1] is diacylglycerol acyltransferase (DGAT). Kind of experiment: DGAT enzyme assay, rat liver microsomes, [14C]triglyceride by TLC or 1-step extraction. The note with it: for Production of [14C]TAG: 0.8% solvent in reaction. On the technique in general: Microsomes from liver hold many membrane-bound enzymes, among them those of drug oxidation.
Description: Rats were euthanized using CO2 affixation; their livers were immediately removed and placed in ice-cold microsome buffer (MC buffer) consisting of 125 mM sucrose, 3.0 mM imidazole, pH 7.4. Livers were cut into approximately 10 pieces, placed into 20 mL of ice cold MC buffer per liver and homogenized on ice in a glass Dounce power homogenizer using 10 up-and-down strokes. Homogenates were centrifuged at 1700 rpm in a Beckman JA-14 rotor for 10 minutes at 4° C. The supernatant was removed and placed on ice. The pellet was resuspended in 4.0 mL MC buffer per liver, rehomogenized as described above, and centrifuged at 1700 rpm in a Beckman JA-14 rotor for 10 minutes at 4° C. This supernatant was combined with the previous supernatant and centrifuged at 13,000 rpm in a Beckman JA-14 rotor for 20 minutes at 4° C. The supernatant was transferred to new tubes on ice, and the pellet was discarded. The supernate was centrifuged at 35,000 rpm in a Beckman Ti-70 rotor for 60 minutes at 4° C., and the resulting pellet, containing microsomal membranes, was resuspended in ice cold MC buffer using 17 strokes of a glass Dounce power homogenizer. Microsomal protein concentrations were determined by the Dc Protein Assay, and BSA was used to generate the standard curve. Microsomes were diluted to final protein concentration of 10 to 20 mg/mL. Microsomes were aliquoted into 1.0-mL tubes and stored in a liquid N2 cryofreezer.
DGAT Assay Buffer (DAB): 0.25 M sucrose, 1.0 mM EDTA, pH 8.0, 150 mM Tris-HCl, pH 7.4, and 1.25 mg/mL fatty acid free BSA.
Compounds were dissolved in DMSO and diluted to make 10× with DAB (10×compound) and kept at room temperature until the assay was performed.
Frozen aliquots of microsomes (10-20 mg/mL total protein) were thawed on ice and diluted to make a 5× working stock at the indicated concentrations with MC buffer and stored on ice until use.
The DGAT assay reaction was performed as follows: 5 μL of 10× compound was added to Perkin Elmer thin-walled reaction tubes followed by 35 μL of DGAT substrate mixture and vortexed. The reaction was started by the addition of 10 μL of the diluted 5× microsomes, vortexed, and incubated in a Perkin Elmer 9600 thermocycler for the indicated times and temperatures.
Reactions were stopped by the addition of 10 μL of 0.75N HCl. Samples were then spotted onto TLC plates and dried in a gravity convection oven at 70° C. for 30 minutes. Plates were developed in a 27×7.5×26 cm TLC chamber for 60 minutes at room temperature in 102 mL of isooctane:ethyl ether:acetic acid (75:25:2) for triglyceride determination. TLC plates were removed from the chamber, dried in a gravity convection oven at 70° C. for 30 minutes, wrapped in cellophane, and exposed to phosphorimager plates overnight. Phosphorimager plates were scanned on a phosphorimager and images were analyzed using ImageQuant software. A [^14C]glycerol trioleate standard was titrated onto TLC plates for mass determinations. All statistics were performed using Microsoft Excel's analysis software using a two-tailed t-test for means.
Reactions were stopped by the addition of 150 μL of AESSM followed by the addition of 300 μL of n-heptane. The mixture is pipetted 5× to mix and allowed to separate for 5 minutes at room temperature. The entire top phase, n-heptane phase, is removed to new tubes and spotted onto silica TLC plates and processed as described above (see TLC method) or placed into 5-mL scintillation vials containing scintillation cocktail and counted.
For experiment [2], the target named is T1, diacylglycerol acyltransferase (DGAT).
T1 construct: IC50, DGAT activity; other: Group 1 rat liver microsome preparation; 1-Step/Scintillation; 37° C., 5 minutes; 1-Step/TLC; TLC; other: Group 2 rat liver microsome preparation; 1-Step/Scintillation
Kind of experiment: 96-well DGAT mass screen assay. The experiment is classed as biochemical, rat. The following applies: 22° C., 60 minutes. The protocol:
Plates are loaded onto the robot carousel. […] The robot arm transfers the plate to multidrop 2 for the addition of 20 μL of diluted microsomes and shaken for 1.0 minute at room temperature. The robot arm transfers the plate back to the carousel where it incubates for 1.0 hour at room temperature. The robot arm transfers the plate to multidrop 3 for the addition of 150 μL of AESSM. The robot arm transfers the plate to the multimek to begin the extraction. The reaction volume is transferred to a 96-[…] polypropylene extraction plate on the multimek. The tips are washed 3×100 μL of DI H2O in a reagent reservoir with a continuous flow of DI H2O. The multimek then washes out the 96-well reaction plate with 3×100 μL of n-heptane and transfers the volume to the extraction plate. The multimek mixes the volume in the extraction plate 6×100 μL, and the plate sits for 10 seconds. The tips are washed 3×100 μL of DI H2O in a continuous flow reagent reservoir. One hundred microliters of the top n-heptane phase is transferred to a Flash plate. The robot arm transfers the Flash plate to a carousel fitted with a fume hood, which allows the n-heptane to evaporate for a minimum of 6 hours. The plates are transferred to a plate sealer to be sealed, transferred to the top count scintillation counter, and counted for 1.0 minute. Data are collected and reported to the Trillium based compound management system.

SMILES strings stand for the structures.

Broadly, the IC50 is the concentration needed to halve the response being measured.

As to `ClC(Cl)Cl` [Chloroform, chloroform], the “DGAT activity, % of control” value in experiment [1] (0.35% chloroform) stood at 955%.

Turning to `CC(C)=O` [Acetone, acetone], in experiment [1] (10.0% acetone), the “DGAT activity increase above controls” value is 394%.

On to `C[S+](C)[O-]` [DMSO], for which, in experiment [1] (37° C. and 22° C.), the “effect on DGAT activity” value was “decreases DGAT activity in a linear manner”. Further, the “DMSO concentration at which DGAT assay showed significant changes” value in experiment [1] (37° C. and 22° C., p<0.05) was 4.5%.

Regarding `CCO` [95% EtOH, ethanol], the “DGAT activity increase above control” value in experiment [1] (0.5% ethanol) was found to be 121%. In addition, the “Production of [14C]TAG” value in experiment [1] is 104±0.4 pmoles [14C]TAG/mg microbe pro. Moreover, the “DGAT activity increase above controls” value in experiment [1] (4.0% ethanol) is on record as 180%.

As to `CCCCCCCC/C=C\CCCCCCCC(=O)OCCOCC(OCCO)C1OCC(OCCO)C1OCCO` (stereo not drawn) [Tween 80], the “Production of [14C]TAG” value in experiment [1] was 20±0.02 pmoles [14C]TAG/mg microbe pro.

For `Cc1ccc2c(c1)Oc1ccc(NC(=O)c3ccc(O)cc3)cc1C(=O)N2C` [N-(7,10-dimethyl-11-oxo-10,11-dihydro-dibenzo[b,f][1,4]oxazepin-2-yl)-4-hydroxy-benzamide], the IC50 in experiment [2] (manually extracted samples) turned out to be 1.7 µM; in experiment [2] (plate 1, 96-well mass screen extraction), 1.5 µM; in experiment [2] (plate 2, 96-well mass screen extraction), 1.27 µM; in experiment [1] (read-out: IC50, DGAT activity, Group 1 rat liver microsome preparation, 1-Step/Scintillation, 37° C., 5 minutes), 1.66 µM; in experiment [1] (read-out: IC50, DGAT activity, Group 1 rat liver microsome preparation, 1-Step/TLC, 37° C., 5 minutes), 0.95 µM; in experiment [1] (read-out: IC50, DGAT activity, Group 1 rat liver microsome preparation, TLC, 37° C., 5 minutes), 1.07 µM. The concentration for half-maximal inhibition (IC50) is 1.12 µM in experiment [1] (read-out: IC50, DGAT activity, Group 2 rat liver microsome preparation, 1-Step/Scintillation, 37° C., 5 minutes); 1.14 µM in experiment [1] (read-out: IC50, DGAT activity, Group 2 rat liver microsome preparation, 1-Step/TLC, 37° C., 5 minutes); 1.52 µM in experiment [1] (read-out: IC50, DGAT activity, Group 2 rat liver microsome preparation, TLC, 37° C., 5 minutes); 2.05 µM in experiment [1] (read-out: IC50, DGAT activity, Group 3 rat liver microsome preparation, 1-Step/Scintillation, 37° C., 5 minutes); 2.3 µM in experiment [1] (read-out: IC50, DGAT activity, Group 3 rat liver microsome preparation, 1-Step/TLC, 37° C., 5 minutes); 1.74 µM in experiment [1] (read-out: IC50, DGAT activity, Group 3 rat liver microsome preparation, TLC, 37° C., 5 minutes). Also, the IC50 in experiment [1] (read-out: IC50, DGAT activity, Group 4 rat liver microsome preparation, 1-Step/Scintillation, 37° C., 5 minutes) stood at 1.1 µM; in experiment [1] (read-out: IC50, DGAT activity, Group 4 rat liver microsome preparation, 1-Step/TLC, 37° C., 5 minutes), 0.73 µM; in experiment [1] (read-out: IC50, DGAT activity, Group 4 rat liver microsome preparation, TLC, 37° C., 5 minutes), 0.91 µM; in experiment [1] (read-out: IC50, DGAT inhibition, 0.8% ethanol and TLC) it was 2.6 µM; in experiment [1] (read-out: IC50, DGAT inhibition, 0.8% ethanol extracted (1-step) and run on TLC), 2.4 µM; in experiment [1] (read-out: IC50, DGAT inhibition, […] acetone:chloroform (8:2) and TLC) it was 2 µM. Besides, in experiment [1] (read-out: IC50, DGAT inhibition, […] acetone:chloroform (8:2) extracted (1-step) and run on TLC), the IC50 came out at 2.5 µM.

The values are drawn from US6607893B2, “Diacylglycerol acyltransferase (DGAT) assay” (Warner-Lambert Company, priority 2000, dated 2003).
